Measurements: publication PMC12035797, “Peptidomimetics Activating the Proteasome: A New Perspective for Parkinson’s Treatment” (Journal of Medicinal Chemistry, 2025)

Columns and labels:
[1] = molecular target: T1, human 20S proteasome, ChT-L peptidase; experiment: Chymotrypsin-like (ChT-L) activity of h20S probed with Suc-LLVY-AMC; type: biochemical
T1 construct: human proteasome isolated from erythrocytes; from tissue; host or cells: human erythrocytes

[2] = system: endogenous α-synuclein in primary cortical cultures; experiment: Endogenous α-synuclein level in primary cortical cultures (Simple Western Jess); type: cell-based, mouse; conditions: 2.5 μM, 7 days; statistical significance only for 1g
Procedure: The effectiveness of the compounds has also been examined by using proteins as substrates. By means of SDS-PAGE electrophoresis, we checked the extent to which model proteins were digested by the 20S proteasome alone and after its stimulation by 10 μM modulators. […] After incubation with the enzyme in the presence of each modulator, less than 40% of synuclein remained. […] All animal experiments were performed following the protocols evaluated and approved by the Laboratory Animal Centre of the University of Helsinki (Ethics Approval License KEK24-013) and in accordance with the European Community Guidelines (Directive 2010/63/EU). […] The viability and number of neuronal cells were calculated automatically in an Automated Cell Counter (Bio-Rad), plated at a density of 1,000,000 cells per well on 6-well plates and cultured in Neurobasal A Medium (Thermo Fisher Scientific (Gibco), #12349015, Waltham, MA, USA) supplemented with GlutaMAX (Thermo Fisher Scientific (Gibco) #A1286001, Waltham, MA, USA), B-27 Supplement (Thermo Fisher Scientific (Gibco), #17504001, Waltham, MA, USA), and 200 ng/mL Primocin (Invitrogen, ant-pm-1, San Diego, CA, USA). […] Protein concentrations in the cell lysates were determined using a bicinchoninic acid (BCA) assay (Sigma-Aldrich, 3B9643-1L-KC, MO, USA) according to the manufacturer’s instructions. […]

Structure (SMILES): C[C@@H](O)[C@H](NC(=O)[C@H](Cc1ccccc1)NC(=O)[C@H](Cc1ccc(O)cc1)NC(=O)CN(CCCCN)C(=O)[C@H](CCCNC(=N)N)NC(=O)[C@H](CCCNC(=N)N)NC(=O)[C@H](CCCNC(=N)N)NC(=O)[C@H](CCC(N)=O)NC(=O)[C@H](CCCNC(=N)N)NC(=O)[C@H](CCCNC(=N)N)NC(=O)[C@H](CCCCN)NC(=O)[C@H](CCCCN)NC(=O)[C@@H](N)CCCNC(=N)N)C(=O)NCC(=O)N[C@@H](CO)C(=O)N[C@@H](CCCCN)C(=O)N[C@@H](CC(=O)O)C(=O)N[C@@H](Cc1c[nH]c2ccccc12)C(=O)N[C@@H](CCCNC(=N)N)C(=O)N[C@@H](CO)C(=O)N[C@@H](Cc1ccc(O)cc1)C(=O)N[C@@H](Cc1ccc(O)cc1)C(=O)N[C@@H](CO)C(=O)O [1f]
- EC50 ([1]; Suc-LLVY-AMC, n = 6, EC50 = concentration causing 50% growth of activity vs vehicle control): 540 ± 100 nM
- stimulation of proteasome activity ([1]; as summed up in Conclusions, substrate not named there): approximately 17 times
- stimulation of the ChT-L peptidase ([1]; at 1 μM concentration, Suc-LLVY-AMC): approximately 16 fold
- effect on endogenous α-synuclein in primary cortical cultures [2]: able to reduce the amount of endogenous α-synuclein
